Values belong to the molecule of their own block, whether it stands above or below them. Calls of active or inactive are those of the source. No cut-off for these calls is given here.
Legend:
[1] = tested on: HBL-100; test: Growth inhibition of human HBL100 cells; assay type: functional
[2] = tested on: Ishikawa; test: Growth inhibition of human Ishikawa cells; assay type: functional
[3] = tested on: T47D; test: Growth inhibition of human T47D cells; assay type: functional
[4] = tested on: WiDr; test: Growth inhibition of human WiDr cells; assay type: functional
[5] = tested on: HeLa; test: Growth inhibition of human HeLa cells; assay type: functional
[6] = tested on: SW1573; test: Growth inhibition of human SW1573 cells; assay type: functional
[7] = tested on: SW1573; test: Cell cycle arrest in human SW1573 cells assessed as decrease in cells at G1 phase at 7 to 21 uM after 24 hrs by flow cytometry; assay type: functional, cell-based
[8] = tested on: HeLa; test: Cell cycle arrest in human HeLa cells assessed as increase in phosphorylated BubR1 level at 7 to 21 uM after 24 hrs by Western blot analysis; assay type: functional, cell-based
[9] = tested on: HeLa; test: Cell cycle arrest in human HeLa cells assessed as accumulation at G2/M phase after 24 hrs by flow cytometry; assay type: functional, cell-based
[10] = tested on: T47D; test: Cell cycle arrest in human T47D cells assessed as decrease in cells at G1 phase at 7 to 21 uM after 24 hrs by flow cytometry; assay type: functional, cell-based
[11] = tested on: HBL-100; test: Cell cycle arrest in human HBL100 cells assessed as decrease in cells at G1 phase at 7 to 21 uM after 24 hrs by flow cytometry; assay type: functional, cell-based
[12] = tested on: HeLa; test: Induction of apoptosis in human HeLa cells assessed as increase in sub-G1 DNA content at 7 to 21 uM after 24 hrs by flow cytometry; assay type: functional
[13] = tested on: HeLa; test: Cell cycle arrest in human HeLa cells assessed as decrease in phosphorylated RB protein at 7 to 21 uM after 24 hrs by Western blot analysis; assay type: functional, cell-based
[14] = tested on: HBL-100; test: Induction of apoptosis in human HBL100 cells assessed as increase in sub-G1 DNA content at 7 to 21 uM after 24 hrs by flow cytometry; assay type: functional
[15] = tested on: WiDr; test: Induction of apoptosis in human WiDr cells assessed as increase in sub-G1 DNA content at 7 to 21 uM after 24 hrs by flow cytometry; assay type: functional
[16] = tested on: HBL-100; test: Cell cycle arrest in human HBL100 cells assessed as decrease in cells at S phase at 7 to 21 uM after 24 hrs by flow cytometry; assay type: functional, cell-based
[17] = tested on: WiDr; test: Cell cycle arrest in human WiDr cells assessed as decrease in cells at G1 phase at 7 to 21 uM after 24 hrs by flow cytometry; assay type: functional, cell-based
[18] = tested on: WiDr; test: Cell cycle arrest in human WiDr cells assessed as decrease in cells at S phase at 7 to 21 uM after 24 hrs by flow cytometry; assay type: functional, cell-based
[19] = tested on: SW1573; test: Cell cycle arrest in human SW1573 cells assessed as decrease in cells at S phase at 7 to 21 uM after 24 hrs by flow cytometry; assay type: functional, cell-based
[20] = tested on: HeLa; test: Cell cycle arrest in human HeLa cells assessed as increase in level of phosphorylated histone H3 at ser10 at 7 to 21 uM after 24 hrs by Western blot analysis; assay type: functional, cell-based
[21] = tested on: T47D; test: Induction of apoptosis in human T47D cells assessed as increase in sub-G1 DNA content at 7 to 21 uM after 24 hrs by flow cytometry; assay type: functional
[22] = tested on: SW1573; test: Cell cycle arrest in human SW1573 cells assessed as accumulation at G2/M phase after 24 hrs by flow cytometry; assay type: functional, cell-based
[23] = tested on: HeLa; test: Cell cycle arrest in human HeLa cells assessed as phosphorylated histone H3 at ser10 at 21 uM after 24 hrs by flow cytometry (reference value: […]); assay type: functional
[24] = tested on: HeLa; test: Cell cycle arrest in human HeLa cells assessed as effect on cyclin B1 protein at 7 to 21 uM after 24 hrs by Western blot analysis; assay type: functional, cell-based
[25] = tested on: HBL-100; test: Cell cycle arrest in human HBL100 cells assessed as accumulation at G2/M phase after 24 hrs by flow cytometry; assay type: functional, cell-based
[26] = tested on: SW1573; test: Induction of apoptosis in human SW1573 cells assessed as increase in sub-G1 DNA content at 7 to 21 uM after 24 hrs by flow cytometry; assay type: functional
[27] = tested on: HeLa; test: Cell cycle arrest in human HeLa cells assessed as decrease in cells at S phase at 7 to 21 uM after 24 hrs by flow cytometry; assay type: functional, cell-based
[28] = tested on: HeLa; test: Cell cycle arrest in human HeLa cells assessed as decrease in cells at G1 phase at 7 to 21 uM after 24 hrs by flow cytometry; assay type: functional, cell-based
[29] = tested on: HeLa; test: Induction of apoptosis in human HeLa cells assessed as PARP cleavage at 7 to 21 uM after 24 hrs by immunoblotting; assay type: functional, cell-based
[30] = tested on: T47D; test: Cell cycle arrest in human T47D cells assessed as accumulation at G2/M phase after 24 hrs by flow cytometry; assay type: functional, cell-based
[31] = tested on: WiDr; test: Cell cycle arrest in human WiDr cells assessed as accumulation at G2/M phase after 24 hrs by flow cytometry; assay type: functional, cell-based
[32] = tested on: A2780; test: Growth inhibition of human A2780 cells; assay type: functional
[33] = tested on: T47D; test: Cell cycle arrest in human T47D cells assessed as decrease in cells at S phase at 7 to 21 uM after 24 hrs by flow cytometry; assay type: functional, cell-based

GI50 [3]: 22 µM
GI50 [5]: 3 µM
GI50 [6]: 15 µM
Compound: COc1cc([C@@H]2c3cc4c(cc3[C@@H](O[C@@H]3O[C@@H]5CO[C@@H](C)O[C@H]5[C@H](O)[C@H]3O)[C@H]3COC(=O)[C@H]23)OCO4)cc(OC)c1O [ETOPOSIDE]
GI50 [1]: 2.3 µM
GI50 [2]: 11 µM
GI50 [4]: 23 µM

GI50 [3]: 7 µM
GI50 [5]: 4.5 µM
GI50 [6]: 3.2 µM
GI50 [32]: 3.4 µM
Compound: CNc1ncnc(NCCc2ccccc2)c1N=O
GI50 [1]: 3.6 µM
GI50 [2]: 3.8 µM
Activity [7]: Active
Activity [8]: Active
Activity [9]: Dose-dependent effect
Activity [10]: Active
Activity [11]: Active
Activity [12]: <8.5%
Activity [13]: Active
Activity [14]: <8.5%
Activity [15]: <8.5%
GI50 [4]: 7.2 µM
Activity [16]: Active
Activity [17]: Active
Activity [18]: Active
Activity [19]: Active
Activity [20]: Active
Activity [21]: <8.5%
Activity [22]: Dose-dependent effect
Activity [23]: 15.1%
Activity [24]: inactive
Activity [25]: Dose-dependent effect
Activity [26]: <8.5%
Activity [27]: Active
Activity [28]: Active
Activity [29]: inactive
Activity [30]: Dose-dependent effect
Activity [31]: Dose-dependent effect
Activity [33]: Active

GI50 [3]: > 100 µM
GI50 [5]: 27 µM
GI50 [6]: 37 µM
GI50 [32]: > 100 µM
Compound: CSc1nc(N)c(N=O)c(NCCc2ccccc2)n1
GI50 [1]: 12 µM
GI50 [2]: > 100 µM
GI50 [4]: > 100 µM

GI50 [3]: > 100 µM
GI50 [5]: > 100 µM
GI50 [6]: > 100 µM
GI50 [32]: > 100 µM
Compound: Cn1c(=O)c(=O)n(O)c2c(NCCN3CCOCC3)ncnc21
GI50 [1]: > 100 µM
GI50 [2]: > 100 µM
GI50 [4]: > 100 µM

GI50 [3]: > 100 µM
GI50 [5]: > 100 µM
GI50 [6]: 59 µM
GI50 [32]: > 100 µM
Compound: Cn1c(=O)c(=O)n(O)c2c(NCCc3ccccc3)ncnc21
GI50 [1]: 54 µM
GI50 [2]: > 100 µM
GI50 [4]: > 100 µM

GI50 [3]: 0.00015 µM
GI50 [6]: 0.005 µM
GI50 [32]: 0.00027 µM
Compound: CC(=O)O[C@H]1C(=O)[C@@]2(C)[C@H]([C@H](OC(=O)c3ccccc3)[C@]3(O)C[C@H](OC(=O)[C@H](O)[C@@H](NC(=O)c4ccccc4)c4ccccc4)C(C)=C1C3(C)C)[C@]1(OC(C)=O)CO[C@@H]1C[C@@H]2O [PACLITAXEL]
GI50 [1]: 1.7e-05 µM
GI50 [4]: 0.00022 µM

— ChEMBL document CHEMBL1909564, “A modular approach to trim cellular targets in anticancer drug discovery” (Bioorg Med Chem Lett, 2011)
